Experimental data as given in ChEMBL document CHEMBL1123524, “Aminoglycoside antibiotics. 6. Chemical reactions of aminoglycosides with disodium carbenicillin” (1986).
In brackets after ≈: the same amount, converted by molar mass.

Legend:
Providencia rettgeri [1] = assay: ntibacterial activity expressed as MIC value was determined on Proteus rettgeri A-21207 organism; format: functional
Pseudomonas aeruginosa [2] = assay: Antibacterial activity expressed as MIC value was determined on Pseudomonas aeruginosa A-21509 organism; format: functional
Enterobacter cloacae [3] = assay: Antibacterial activity expressed as MIC value was determined on Enterobacter cloacae A-21006 organism; format: functional
Escherichia coli [4] = assay: Antibacterial activity expressed as MIC value was determined on Escherichia coli A-22045 organism; format: functional
Providencia rettgeri [5] = assay: (§1) Antibacterial activity expressed as MIC value was determined on Proteus rettgeri A-9637 organism; format: functional
Staphylococcus aureus [6] = assay: Antibacterial activity expressed as MIC value was determined on Staphylococcus aureus A-9537 organism; format: functional
Staphylococcus aureus [7] = assay: Antibacterial activity expressed as MIC value was determined on Staphylococcus aureus A-20240 organism; format: functional
Enterobacter cloacae [8] = assay: Antibacterial activity expressed as MIC value was determined on Enterobacter cloacae A-21136 organism; format: functional
Pseudomonas aeruginosa [9] = assay: Antibacterial activity expressed as MIC value was determined on Pseudomonas aeruginosa A-21508 organism; format: functional
Escherichia coli [10] = assay: Antibacterial activity expressed as MIC value was determined on Escherichia coli A-9632 organism; format: functional
Serratia marcescens = assay: Antibacterial activity expressed as MIC value was determined on Serratia marcescens A-20019 organism; format: functional
Staphylococcus aureus [11] = assay: Antibacterial activity expressed as MIC value was determined on Staphylococcus aureus A-22231 organism; format: functional
Proteus mirabilis = assay: Antibacterial activity expressed as MIC value was determined on Proteus mirabilis A-9900 organism; format: functional
Pseudomonas aeruginosa [12] = assay: Antibacterial activity expressed as MIC value was determined on Pseudomonas aeruginosa A-20741 organism; format: functional
Staphylococcus aureus [13] = assay: Antibacterial activity expressed as MIC value was determined on Staphylococcus aureus A-22058 organism; format: functional
Escherichia coli [14] = assay: Antibacterial activity expressed as MIC value was determined on Escherichia coli A-20895 organism; format: functional
Escherichia coli [15] = assay: Antibacterial activity expressed as MIC value was determined on Escherichia coli A-20697 organism; format: functional
Pseudomonas aeruginosa [16] = assay: Antibacterial activity expressed as MIC value was determined on Pseudomonas aeruginosa A-20897 organism; format: functional
Enterobacter cloacae [17] = assay: Antibacterial activity expressed as MIC value was determined on Enterobacter cloacae A-20364 organism; format: functional
Pseudomonas aeruginosa [18] = assay: Antibacterial activity expressed as MIC value was determined on Pseudomonas aeruginosa A-21294 organism; format: functional
Pseudomonas aeruginosa [19] = assay: Antibacterial activity expressed as MIC value was determined on Pseudomonas aeruginosa A-20717 organism; format: functional
Escherichia coli [20] = assay: Antibacterial activity expressed as MIC value was determined on Escherichia coli A-21218 organism; format: functional
Staphylococcus aureus [21] = assay: Antibacterial activity expressed as MIC value was determined on Staphylococcus aureus A-21978 organism; format: functional
Klebsiella pneumoniae = assay: Antibacterial activity expressed as MIC value was determined on Klebsiella pneumonia A-20468 organism; format: functional
Pseudomonas aeruginosa [22] = assay: Antibacterial activity expressed as MIC value was determined on Pseudomonas aeruginosa A-20601 organism; format: functional
Escherichia coli [23] = assay: Antibacterial activity expressed as MIC value was determined on Escherichia coli A-20732 organism; format: functional
Providencia stuartii [24] = assay: Antibacterial activity expressed as MIC value was determined on Proteus stuartii A-21210 organism; format: functional
Pseudomonas aeruginosa [25] = assay: Antibacterial activity expressed as MIC value was determined on Pseudomonas aeruginosa A-20653 organism; format: functional
Escherichia coli [26] = assay: Antibacterial activity expressed as MIC value was determined on Escherichia coli A-20683 organism; format: functional
Escherichia coli [27] = assay: Antibacterial activity expressed as MIC value was determined on Escherichia coli A-22356 organism; format: functional
Escherichia coli [28] = assay: Antibacterial activity expressed as MIC value was determined on Escherichia coli A-20665 organism; format: functional
Pseudomonas aeruginosa [29] = assay: Antibacterial activity expressed as MIC value was determined on Pseudomonas aeruginosa A-9834A organism; format: functional
Pseudomonas aeruginosa [30] = assay: Antibacterial activity expressed as MIC value was determined on Pseudomonas aeruginosa A-22233 organism; format: functional
Providencia stuartii [31] = assay: Antibacterial activity expressed as MIC value was determined on Proteus stuartii A-20894 organism; format: functional
Staphylococcus aureus [32] = assay: Antibacterial activity expressed as MIC value was determined on Staphylococcus aureus A-22210 organism; format: functional
Enterobacter cloacae [33] = assay: Antibacterial activity expressed as MIC value was determined on Enterobacter cloacae A-9656 organism; format: functional
Pseudomonas aeruginosa [34] = assay: Antibacterial activity expressed as MIC value was determined on Pseudomonas aeruginosa A-9834A organismA-; format: functional, organism-based
Providencia rettgeri [35] = assay: Antibacterial activity expressed as MIC value was determined on Proteus rettgeri A-21207 organism; format: functional
Providencia rettgeri [36] = assay: as §1; format: functional; remark: listed apart in the source
Pseudomonas aeruginosa [37] = assay: Antibacterial activity expressed as MIC value was determined on Pseudomonas aeruginosa A-20601; format: functional, organism-based
Staphylococcus aureus [38] = assay: Antibacterial activity expressed as MIC value was determined on; format: functional, organism-based

NC[C@H]1O[C@H](O[C@H]2[C@H](O)[C@@H](O[C@H]3O[C@H](CO)[C@@H](O)[C@H](N)[C@H]3O)[C@H](N)C[C@@H]2N)[C@H](O)[C@@H](O)[C@@H]1O [KANAMYCIN]
MIC (Providencia rettgeri [1]): 2 µg/mL (≈ 4.13 µM)
MIC (Pseudomonas aeruginosa [2]): > 125 µg/mL
MIC (Enterobacter cloacae [3]): > 125 µg/mL
MIC (Escherichia coli [4]): 4 µg/mL (≈ 8.26 µM)
MIC (Providencia rettgeri [5]): 0.5 µg/mL (≈ 1.03 µM)
MIC (Staphylococcus aureus [6]): 0.05 µg/mL (≈ 0.103 µM)
MIC (Staphylococcus aureus [7]): > 125 µg/mL
MIC (Enterobacter cloacae [8]): 32 µg/mL (≈ 66 µM)
MIC (Pseudomonas aeruginosa [9]): > 125 µg/mL
MIC (Escherichia coli [10]): 2 µg/mL (≈ 4.13 µM)
MIC (Serratia marcescens): 1 µg/mL (≈ 2.06 µM)
MIC (Staphylococcus aureus [11]): 8 µg/mL (≈ 16.5 µM)
MIC (Proteus mirabilis): 2 µg/mL (≈ 4.13 µM)
MIC (Pseudomonas aeruginosa [12]): > 125 µg/mL
MIC (Staphylococcus aureus [13]): 125 µg/mL (≈ 258 µM)
MIC (Escherichia coli [14]): 2 µg/mL (≈ 4.13 µM)
MIC (Escherichia coli [15]): 2 µg/mL (≈ 4.13 µM)
MIC (Pseudomonas aeruginosa [16]): > 125 µg/mL
MIC (Enterobacter cloacae [17]): > 125 µg/mL
MIC (Pseudomonas aeruginosa [18]): 63 µg/mL (≈ 130 µM)
MIC (Pseudomonas aeruginosa [19]): 32 µg/mL (≈ 66 µM)
MIC (Escherichia coli [20]): 32 µg/mL (≈ 66 µM)
MIC (Staphylococcus aureus [21]): > 125 µg/mL
MIC (Klebsiella pneumoniae): 0.5 µg/mL (≈ 1.03 µM)
MIC (Pseudomonas aeruginosa [22]): 32 µg/mL (≈ 66 µM)
MIC (Escherichia coli [23]): 63 µg/mL (≈ 130 µM)
MIC (Providencia stuartii [24]): 0.5 µg/mL (≈ 1.03 µM)
MIC (Pseudomonas aeruginosa [25]): > 125 µg/mL
MIC (Escherichia coli [26]): > 125 µg/mL
MIC (Escherichia coli [27]): 2 µg/mL (≈ 4.13 µM)
MIC (Escherichia coli [28]): > 125 µg/mL
MIC (Pseudomonas aeruginosa [29]): 63 µg/mL (≈ 130 µM)
MIC (Pseudomonas aeruginosa [30]): > 125 µg/mL
MIC (Providencia stuartii [31]): 4 µg/mL (≈ 8.26 µM)
MIC (Staphylococcus aureus [32]): > 125 µg/mL
MIC (Enterobacter cloacae [33]): 1 µg/mL (≈ 2.06 µM)

NC[C@H]1O[C@H](O[C@H]2[C@H](O)[C@@H](O[C@H]3O[C@H](CO)[C@@H](O)[C@H](N)[C@H]3O)[C@H](N)C[C@@H]2N)[C@H](N)C[C@@H]1O [TOBRAMYCIN]
MIC (Providencia rettgeri [1]): 32 µg/mL (≈ 68.4 µM)
MIC (Pseudomonas aeruginosa [2]): 4 µg/mL (≈ 8.56 µM)
MIC (Enterobacter cloacae [3]): 1 µg/mL (≈ 2.14 µM)
MIC (Escherichia coli [4]): 4 µg/mL (≈ 8.56 µM)
MIC (Providencia rettgeri [5]): 0.13 µg/mL (≈ 0.278 µM)
MIC (Staphylococcus aureus [6]): 0.03 µg/mL (≈ 0.0642 µM)
MIC (Staphylococcus aureus [7]): 0.13 µg/mL (≈ 0.278 µM)
MIC (Enterobacter cloacae [8]): 16 µg/mL (≈ 34.2 µM)
MIC (Pseudomonas aeruginosa [9]): 0.06 µg/mL (≈ 0.128 µM)
MIC (Escherichia coli [10]): 0.25 µg/mL (≈ 0.535 µM)
MIC (Serratia marcescens): 2 µg/mL (≈ 4.28 µM)
MIC (Staphylococcus aureus [11]): 16 µg/mL (≈ 34.2 µM)
MIC (Proteus mirabilis): 0.5 µg/mL (≈ 1.07 µM)
MIC (Pseudomonas aeruginosa [12]): > 125 µg/mL
MIC (Staphylococcus aureus [13]): 32 µg/mL (≈ 68.4 µM)
MIC (Escherichia coli [14]): 0.5 µg/mL (≈ 1.07 µM)
MIC (Escherichia coli [15]): 0.13 µg/mL (≈ 0.278 µM)
MIC (Pseudomonas aeruginosa [16]): 125 µg/mL (≈ 267 µM)
MIC (Enterobacter cloacae [17]): 0.5 µg/mL (≈ 1.07 µM)
MIC (Pseudomonas aeruginosa [18]): 16 µg/mL (≈ 34.2 µM)
MIC (Pseudomonas aeruginosa [19]): 0.13 µg/mL (≈ 0.278 µM)
MIC (Escherichia coli [20]): 8 µg/mL (≈ 17.1 µM)
MIC (Staphylococcus aureus [21]): 32 µg/mL (≈ 68.4 µM)
MIC (Klebsiella pneumoniae): 0.06 µg/mL (≈ 0.128 µM)
MIC (Pseudomonas aeruginosa [22]): 0.13 µg/mL (≈ 0.278 µM)
MIC (Escherichia coli [23]): 8 µg/mL (≈ 17.1 µM)
MIC (Providencia stuartii [24]): 2 µg/mL (≈ 4.28 µM)
MIC (Pseudomonas aeruginosa [25]): 0.13 µg/mL (≈ 0.278 µM)
MIC (Escherichia coli [26]): 16 µg/mL (≈ 34.2 µM)
MIC (Escherichia coli [27]): 0.25 µg/mL (≈ 0.535 µM)
MIC (Escherichia coli [28]): 1 µg/mL (≈ 2.14 µM)
MIC (Pseudomonas aeruginosa [29]): 0.13 µg/mL (≈ 0.278 µM)
MIC (Pseudomonas aeruginosa [30]): 125 µg/mL (≈ 267 µM)
MIC (Providencia stuartii [31]): 16 µg/mL (≈ 34.2 µM)
MIC (Staphylococcus aureus [32]): 8 µg/mL (≈ 17.1 µM)
MIC (Enterobacter cloacae [33]): 0.25 µg/mL (≈ 0.535 µM)

GENTAMICIN
MIC (Pseudomonas aeruginosa [34]): 0.25 µg/mL
MIC (Pseudomonas aeruginosa [2]): 16 µg/mL
MIC (Providencia rettgeri [35]): 8 µg/mL
MIC (Providencia rettgeri [36]): 0.06 µg/mL
MIC (Escherichia coli [4]): 63 µg/mL
MIC (Staphylococcus aureus [6]): 0.06 µg/mL
MIC (Staphylococcus aureus [7]): 0.13 µg/mL
MIC (Escherichia coli [10]): 0.25 µg/mL
MIC (Serratia marcescens): 1 µg/mL
MIC (Staphylococcus aureus [11]): 0.13 µg/mL
MIC (Proteus mirabilis): 1 µg/mL
MIC (Pseudomonas aeruginosa [12]): > 125 µg/mL
MIC (Escherichia coli [14]): 32 µg/mL
MIC (Escherichia coli [15]): 0.25 µg/mL
MIC (Pseudomonas aeruginosa [16]): > 125 µg/mL
MIC (Pseudomonas aeruginosa [18]): 1 µg/mL
MIC (Pseudomonas aeruginosa [19]): 4 µg/mL
MIC (Escherichia coli [20]): 0.25 µg/mL
MIC (Pseudomonas aeruginosa [37]): > 125 µg/mL
MIC (Staphylococcus aureus [21]): 0.25 µg/mL
MIC (Klebsiella pneumoniae): 0.25 µg/mL
MIC (Escherichia coli [23]): 16 µg/mL
MIC (Providencia stuartii [24]): 1 µg/mL
MIC (Escherichia coli [26]): 32 µg/mL
MIC (Providencia stuartii [31]): 125 µg/mL
MIC (Staphylococcus aureus [32]): 32 µg/mL
MIC (Staphylococcus aureus [38]): 0.13 µg/mL
